# Results reported in patent US11207325B2, “Triazolopyrimidine compounds and uses thereof” (Novartis AG, priority 2014, dated 2021).
# Tested on: H3K27 methylation in G401 cell
# Assay: ELISA (H3K27 methylation) assay
# Type: cell-based
# Conditions: Homo sapiens, G-401; ELISA Qualified assay (H3K27 methylation); read-out: (c) IC50 (μM), ELISA Qualified
# Description: ELISA (H3K27 Methylation) Assay
row,IC50,Compound
1,0.0148 µM,"Fc1ccc2c(c1CNc1ncc(-c3cnn(C4CC4)c3)c3nncn13)CCO2 [Example 150, 8-(1-cyclopropyl-1H-pyrazol-4-yl)-N-((5-fluoro-2,3-dihydrobenzofuran-4-yl)methyl)-[1,2,4]triazolo[4,3-c]pyrimidin-5-amine]"
2,0.0014 µM,"Fc1ccc2c(c1CNc1ncc(-n3ccnc3)c3nncn13)CCO2 [Example 240, N-((5-fluoro-2,3-dihydrobenzofuran-4-yl)methyl)-8-(1H-imidazol-1-yl)-[1,2,4]triazolo[4,3-c]pyrimidin-5-amine]"
3,0.14 µM,"COCc1ncc(-c2cnc(NCc3cccc4c3CCO4)n3cnnc23)cc1C [Example 83, N-((2,3-dihydrobenzofuran-4-yl)methyl)-8-(6-(methoxymethyl)-5-methylpyridin-3-yl)-[1,2,4]triazolo[4,3-c]pyrimidin-5-amine]"
4,0.019 µM,"CN(C)Cc1ccc(-c2cnc(NCc3cccc4occc34)n3cnnc23)cc1 [Example 208, N-(benzofuran-4-ylmethyl)-8-(4-((dimethylamino)methyl)phenyl)-[1,2,4]triazolo[4,3-c]pyrimidin-5-amine]"
5,0.226 µM,"COCc1cc(-c2cnc(NCc3cccc4c3CCO4)n3cnnc23)cnc1C [Example 137, N-((2,3-dihydrobenzofuran-4-yl)methyl)-8-(5-(methoxymethyl)-6-methylpyridin-3-yl)-[1,2,4]triazolo[4,3-c]pyrimidin-5-amine]"
6,0.0803 µM,"COCCn1nc(C)c(-c2cnc(NCc3cccc4c3CCO4)n3cnnc23)c1C [Example 66, N-((2,3-dihydrobenzofuran-4-yl)methyl)-8-(1-(2-methoxyethyl)-3,5-dimethyl-1H-pyrazol-4-yl)-[1,2,4]triazolo[4,3-c]pyrimidin-5-amine]"
7,0.0721 µM,"Fc1ccc2c(c1CNc1ncc(-c3ccnc(N4CCOCC4)c3)c3nncn13)CCO2 [Example 120, N-((5-fluoro-2,3-dihydrobenzofuran-4-yl)methyl)-8-(2-morpholinopyridin-4-yl)-[1,2,4]triazolo[4,3-c]pyrimidin-5-amine]"
8,0.0576 µM,"Cc1cc(C)c(-c2cnc(NCc3c(F)ccc4c3CCO4)n3cnnc23)cn1 [Example 222, 8-(4,6-dimethylpyridin-3-yl)-N-((5-fluoro-2,3-dihydrobenzofuran-4-yl)methyl)-[1,2,4]triazolo[4,3-c]pyrimidin-5-amine]"
9,0.0072 µM,"Cc1cc(-c2cnc(NCc3c(F)ccc4c3CCO4)n3cnnc23)ccn1 [Example 116, N-((5-fluoro-2,3-dihydrobenzofuran-4-yl)methyl)-8-(2-methylpyridin-4-yl)-[1,2,4]triazolo[4,3-c]pyrimidin-5-amine]"
10,0.0604 µM,"c1cncc(-c2cnc(NCc3cccc4c3CCO4)n3cnnc23)c1 [Example 16, N-((2,3-dihydrobenzofuran-4-yl)methyl)-8-(pyridin-3-yl)-[1,2,4]triazolo[4,3-c]pyrimidin-5-amine]"
11,0.0208 µM,"Cc1c(-c2cnc(NCc3c(F)ccc4c3CCO4)n3cnnc23)ccnc1C(F)F [Example 181, 8-(2-(difluoromethyl)-3-methylpyridin-4-yl)-N-((5-fluoro-2,3-dihydrobenzofuran-4-yl)methyl)-[1,2,4]triazolo[4,3-c]pyrimidin-5-amine]"
12,0.162 µM,"Cc1nn(C)c(C)c1-c1cnc(NCc2cccc3c2CCO3)n2cnnc12 [Example 24, N-((2,3-dihydrobenzofuran-4-yl)methyl)-8-(1,3,5-trimethyl-1H-pyrazol-4-yl)-[1,2,4]triazolo[4,3-c]pyrimidin-5-amine]"
13,0.0243 µM,"Fc1ccc2c(c1CNc1ncc(-c3cccnc3F)c3nncn13)CCO2 [Example 115, N-((5-fluoro-2,3-dihydrobenzofuran-4-yl)methyl)-8-(2-fluoropyridin-3-yl)-[1,2,4]triazolo[4,3-c]pyrimidin-5-amine]"
14,0.183 µM,"COC(=O)N1CCN(c2ccc(-c3cnc(NCc4cccc5c4CCO5)n4cnnc34)cn2)CC1 [Example 97, methyl 4-(5-(5-(((2,3-dihydrobenzofuran-4-yl)methyl)amino)-[1,2,4]triazolo[4,3-c]pyrimidin-8-yl)pyridin-2-yl)piperazine-1-carboxylate]"
15,0.0036 µM,"Cc1c(-c2cnc(NCc3c(F)ccc4c3CCO4)n3cnnc23)cnn1C(C)C [Example 188, N-((5-fluoro-2,3-dihydrobenzofuran-4-yl)methyl)-8-(1-isopropyl-5-methyl-1H-pyrazol-4-yl)-[1,2,4]triazolo[4,3-c]pyrimidin-5-amine]"
16,0.012 µM,"Cc1nn(C[C@H](C)O)c(C)c1-c1cnc(NCc2c(F)ccc3c2CCO3)n2cnnc12 [Example 187, (2S)-1-(4-(5-(((5-fluoro-2,3-dihydrobenzofuran-4-yl)methyl)amino)-[1,2,4]triazolo[4,3-c]pyrimidin-8-yl)-3,5-dimethyl-1H-pyrazol-1-yl)propan-2-ol]"
17,0.0033 µM,"Cc1cc(C(=O)N(C)C)ncc1-c1cnc(NCc2c(F)ccc3c2CCO3)n2cnnc12 [Example 131, 5-(5-(((5-fluoro-2,3-dihydrobenzofuran-4-yl)methyl)amino)-[1,2,4]triazolo[4,3-c]pyrimidin-8-yl)-N,N,4-trimethylpicolinamide]"

row,IC50,Compound
1,0.0978 µM,"Cc1c(-c2cnc(NCc3cccc4c3CCO4)n3cnnc23)cnn1C [Example 64, N-((2,3-dihydrobenzofuran-4-yl)methyl)-8-(1,5-dimethyl-1H-pyrazol-4-yl)-[1,2,4]triazolo[4,3-c]pyrimidin-5-amine]"
2,0.378 µM,"O=C(c1ccc(-c2cnc(NCc3cccc4c3CCO4)n3cnnc23)cn1)N1CCOCC1 [Example 68, (5-(5-(((2,3-dihydrobenzofuran-4-yl)methyl)amino)-[1,2,4]triazolo[4,3-c]pyrimidin-8-yl)pyridin-2-yl)(morpholino)methanone]"
3,0.0086 µM,"Fc1ccc2c(c1CNc1ncc(-c3ccncc3)c3nncn13)CCO2 [Example 45, N-((5-fluoro-2,3-dihydrobenzofuran-4-yl)methyl)-8-(pyridin-4-yl)-[1,2,4]triazolo[4,3-c]pyrimidin-5-amine]"
4,0.0044 µM,"Cc1c(-c2cnc(NCc3c(F)ccc4c3CCO4)n3cnnc23)cnn1C [Example 172, 8-(1,5-dimethyl-1H-pyrazol-4-yl)-N-((5-fluoro-2,3-dihydrobenzofuran-4-yl)methyl)-[1,2,4]triazolo[4,3-c]pyrimidin-5-amine]"
5,0.141 µM,"CN(C)CCc1ccc(-c2cnc(NCc3cccc4c3CCO4)n3cnnc23)cn1 [Example 53, N-((2,3-dihydrobenzofuran-4-yl)methyl)-8-(6-(2-(dimethylamino)ethyl)pyridin-3-yl)-[1,2,4]triazolo[4,3-c]pyrimidin-5-amine]"
6,0.028 µM,"Cc1cc(S(C)(=O)=O)ncc1-c1cnc(NCc2c(F)ccc3c2CCO3)n2cnnc12 [Example 127, N-((5-fluoro-2,3-dihydrobenzofuran-4-yl)methyl)-8-(4-methyl-6-(methylsulfonyl)pyridin-3-yl)-[1,2,4]triazolo[4,3-c]pyrimidin-5-amine]"
7,0.0448 µM,"CS(=O)(=O)c1ccc(-c2cnc(NCc3cccc4c3CCO4)n3cnnc23)c(F)c1 [Example 26, N-((2,3-dihydrobenzofuran-4-yl)methyl)-8-(2-fluoro-4-(methylsulfonyl)phenyl)-[1,2,4]triazolo[4,3-c]pyrimidin-5-amine]"
8,0.0106 µM,"Cc1cnc(F)cc1-c1cnc(NCc2c(F)ccc3c2CCO3)n2cnnc12 [Example 183, N-((5-fluoro-2,3-dihydrobenzofuran-4-yl)methyl)-8-(2-fluoro-5-methylpyridin-4-yl)-[1,2,4]triazolo[4,3-c]pyrimidin-5-amine]"
9,0.0493 µM,"CS(=O)(=O)c1ccc(-c2cnc(NCc3c(F)ccc4c3CCO4)n3cnnc23)cn1 [Example 56, N-((5-fluoro-2,3-dihydrobenzofuran-4-yl)methyl)-8-(6-(methylsulfonyl)pyridin-3-yl)-[1,2,4]triazolo[4,3-c]pyrimidin-5-amine]"
10,0.0968 µM,"FC(F)c1ccc(-c2cnc(NCc3cccc4c3CCO4)n3cnnc23)cn1 [Example 154, 8-(6-(difluoromethyl)pyridin-3-yl)-N-((2,3-dihydrobenzofuran-4-yl)methyl)-[1,2,4]triazolo[4,3-c]pyrimidin-5-amine]"
11,0.107 µM,"Cc1nn(C(C)C)cc1-c1cnc(NCc2cccc3c2CCO3)n2cnnc12 [Example 82, N-((2,3-dihydrobenzofuran-4-yl)methyl)-8-(1-isopropyl-3-methyl-1H-pyrazol-4-yl)-[1,2,4]triazolo[4,3-c]pyrimidin-5-amine]"
12,0.581 µM,"c1cc(CNc2ncc(-c3cncc(N4CCNCC4)c3)c3nncn23)c2c(c1)OCC2 [Example 77, N-((2,3-dihydrobenzofuran-4-yl)methyl)-8-(5-(piperazin-1-yl)pyridin-3-yl)-[1,2,4]triazolo[4,3-c]pyrimidin-5-amine]"
13,0.238 µM,"CN(C)c1ncc(-c2cnc(NCc3cccc4c3CCO4)n3cnnc23)cn1 [Example 88, N-((2,3-dihydrobenzofuran-4-yl)methyl)-8-(2-(dimethylamino)pyrimidin-5-yl)-[1,2,4]triazolo[4,3-c]pyrimidin-5-amine]"
14,0.0076 µM,"Cc1cn(-c2cnc(NCc3c(F)ccc4c3CCO4)n3cnnc23)c(C)n1 [Example 236, 8-(2,4-dimethyl-1H-imidazol-1-yl)-N-((5-fluoro-2,3-dihydrobenzofuran-4-yl)methyl)-[1,2,4]triazolo[4,3-c]pyrimidin-5-amine]"
15,0.675 µM,"CC1(C)COC(c2cncc(-c3cnc(NCc4cccc5c4CCO5)n4cnnc34)c2)=N1 [Example 90, N-((2,3-dihydrobenzofuran-4-yl)methyl)-8-(5-(4,4-dimethyl-4,5-dihydrooxazol-2-yl)pyridin-3-yl)-[1,2,4]triazolo[4,3-c]pyrimidin-5-amine]"
16,0.003 µM,"Cn1cc(-c2cnc(NCc3c(F)ccc4c3CCO4)n3cnnc23)c(C(F)F)n1 [Example 200, 8-(3-(difluoromethyl)-1-methyl-1H-pyrazol-4-yl)-N-((5-fluoro-2,3-dihydrobenzofuran-4-yl)methyl)-[1,2,4]triazolo[4,3-c]pyrimidin-5-amine]"
